Results published in patent US20170333391A1, “METHOD FOR DELAYING THE ONSET OF PULMONARY FIBROSIS OR TREATING PULMONARY FIBROSIS” (EVERFRONT BIOTECH INC., priority 2016, published 2017).

Legend:
[1] = system: Rat type II alveolar cell, L2 cell line; assay: Cell survival test (MTT analysis) under H2O2 oxidative stress; assay type: cell-based; details: 24 hours, control group = 100%
Experimental: The rat type II alveolar cell, L2 cell line (ATCC® CCL149™) were seeded into a 96-well plate at a density of 5×10^3 cells/well, 48 wells in total (separated into a control group and five experimental groups, 8 wells for each group). The cells were cultured until the next day, and then the mediums were removed. Each group was respectively treated under the following conditions to conduct follow-up experiments:
(1) Control group: cells were cultured in a F-12K medium (Kaighn's Modification of Ham's F-12 Medium, ATCC® 30-2004™) for 24 hours;
(2) Group 1: cells were cultured in a F-12K medium containing H2O2 (0.1 mM) for 24 hours;
(3) Group 2: cells were cultured in a F-12K medium containing H2O2 (0.1 mM) and compound (1) (5 μg/ml) for 24 hours;
(4) Group 3: cells were cultured in a F-12K medium containing H2O2 (0.1 mM) and N-acetylcysteine (NAC) (2 mM) for 24 hours;
(5) Group 4: cells were cultured in a F-12K medium containing H2O2 (0.2 mM) and compound (1) (5 μg/ml) for 24 hours; and
(6) Group 5: cells were cultured in a F-12K medium containing H2O2 (0.2 mM) and NAC (2 mM) for 24 hours.
The mediums were removed after culturing was complete, and then each group was respectively treated under the following conditions: F-12K mediums containing 10% of 3-(4,5-Dimethylthiazol-2-yl)-2,5-diphenyltetrazolium bromide (MTT) were added into each well, and cultured for 1 hour. Thereafter, the mediums were removed, and a suitable amount of dimethyl sulfoxide (DMSO) was added into the wells. An Enzyme-Linked ImmunoSorbent Assay reader (ELISA reader) was then used for detecting the absorbance of each group at a wavelength of 595 nm (OD595nm). The average value of each group was respectively calculated (n=8), and then the result of the control group served as the basis for calculating the relative survival rates of the other groups.

type I collagen = assay: Type I collagen expression in TGF-β1-induced NHLF, western blotting (2-2); assay type: cell-based, human; details: TGF-β1-only control group = 1
Experimental: (§1) Normal Human lung fibroblasts (NHLF) were seeded into 6 cm culture dishes at a density of 2×10^5 cells/dish, comprising a control group and six experimental groups (7 dishes in total). The cells were cultured until the next day, and then the mediums were removed. Each group was respectively treated under the following conditions to conduct follow-up experiments: • (1) Positive control group: cells were cultured in a FGM-2 medium containing 1% serum and TGF-β1 (5 ng/ml) for 36 hours; • (2) Group I: cells were firstly cultured in a FGM-2 medium containing 1% serum and TGF-β1 (5 ng/ml) for 12 hours, and then compound (1) was added into the medium to provide a final concentration of 15 μg/ml; thereafter, the cells were cultured for another 24 hours; • (3) Group II: cells were firstly cultured in a FGM-2 medium containing 1% serum and TGF-β1 (5 ng/ml) for 12 hours, and then compound (1) was added into the medium to provide a final concentration of 25 μg/ml; thereafter, the cells were cultured for another 24 hours; • (4) Group III: cells were firstly cultured in a FGM-2 medium containing 1% serum and TGF-β1 (5 ng/ml) for 12 hours, and then compound (1) was added into the medium to provide a final concentration of 35 μg/ml; thereafter, the cells were cultured for another 24 hours; • (5) Group IV: cells were firstly cultured in a FGM-2 medium containing 1% serum and TGF-β1 (5 ng/ml) for 12 hours, and then the Pirfenidone was added into the medium to provide a final concentration of 100 μg/ml; thereafter, the cells were cultured for another 24 hours; • (6) Group V: cells were firstly cultured in a FGM-2 medium containing 1% serum and TGF-β1 (5 ng/ml) for 12 hours, and then the Pirfenidone was added into the medium to provide a final concentration of 250 μg/ml; thereafter, the cells were cultured for another 24 hours; and • (7) Group VI: cells were firstly cultured in a FGM-2 medium containing 1% serum and TGF-β1 (5 ng/ml) for 12 hours, and then the Pirfenidone was added into the medium to provide a final concentration of 500 μg/ml; thereafter, the cells were cultured for another 24 hours.
(§2) Thereafter, the proteins in the cells of each group were extracted, and the expressions of type I collagen, BMP-7 protein and TGF-β protein in the NHLF cells of each group were measured with western blotting. The results of the control group served as the basis for calculating the relative expression levels of the other groups.

BMP-7 protein [2] = assay: BMP-7 protein expression in TGF-β1-induced NHLF, western blotting (2-2); assay type: cell-based, human; details: TGF-β1-only control group = 1
Experimental: as §1, §2

TGF-β protein [3] = assay: TGF-β protein expression in TGF-β1-induced NHLF, western blotting (2-2); assay type: cell-based, human; details: TGF-β1-only control group = 1
Experimental: as §1, §2

BMP-7 protein [4] = assay: BMP-7 protein expression in TGF-β1-induced NHLF, western blotting (Example 4); assay type: cell-based, human; details: uninduced control = 1, TGF-β1-only group A = 0.19
Experimental: (§3) Normal Human lung fibroblasts (NHLF) were seeded into 6 cm culture dishes at a density of 2×10^5 cells/dish, comprising a control group and five experimental groups (6 dishes in total). The cells were cultured until the next day, and then the mediums were removed. Each group was respectively treated under the following conditions to conduct follow-up experiments: • (1) Control group: cells were cultured in a FGM-2 medium containing 1% serum for 36 hours; • (2) Group A: cells were cultured in a FGM-2 medium containing 1% serum and TGF-β1 (5 ng/ml) for 36 hours; • (3) Group B: cells were firstly cultured in a FGM-2 medium containing 1% serum and TGF-β1 (5 ng/ml) for 12 hours, and then compound (1) was added into the medium to provide a final concentration of 15 μg/ml; thereafter, the cells were cultured for another 24 hours; • (4) Group C: cells were firstly cultured in a FGM-2 medium containing 1% serum and TGF-β1 (5 ng/ml) for 12 hours, and then compound (1) was added into the medium to provide a final concentration of 30 μg/ml; thereafter, the cells were cultured for another 24 hours; • (5) Group D: cells were firstly cultured in a FGM-2 medium containing 1% serum and TGF-β1 (5 ng/ml) for 12 hours, and then compound (2) was added into the medium to provide a final concentration of 100 μg/ml; thereafter, the cells were cultured for another 24 hours; and • (6) Group E: cells were firstly cultured in a FGM-2 medium containing 1% serum and TGF-β1 (5 ng/ml) for 12 hours, and then compound (2) was added into the medium to provide a final concentration of 200 μg/ml; thereafter, the cells were cultured for another 24 hours.
as §2, with “of” for “of type I collagen,”, “BMP-7 protein, TGF-β” for “BMP-7”, “p-smad2/3” for “TGF-β”

TGF-β protein [5] = assay: TGF-β protein expression in TGF-β1-induced NHLF, western blotting (Example 4); assay type: cell-based, human; details: uninduced control = 1, TGF-β1-only group A = 1.75
Experimental: as §3
as §2, with “of” for “of type I collagen,”, “BMP-7 protein, TGF-β” for “BMP-7”, “p-smad2/3” for “TGF-β”

p-smad2/3 protein = p-smad2/3 protein expression in TGF-β1-induced NHLF, western blotting (Example 4); assay type: cell-based, human; details: uninduced control = 1, TGF-β1-only group A = 1.42
Experimental: as §3
as §2, with “of” for “of type I collagen,”, “BMP-7 protein, TGF-β” for “BMP-7”, “p-smad2/3” for “TGF-β”

[6] = Group IV: TGF-β1 5 ng/ml 12 h, then Pirfenidone 100 μg/ml 24 h
[7] = Group V: TGF-β1 5 ng/ml 12 h, then Pirfenidone 250 μg/ml 24 h
[8] = Group VI: TGF-β1 5 ng/ml 12 h, then Pirfenidone 500 μg/ml 24 h
[9] = Group D: TGF-β1 5 ng/ml 12 h, then compound (2) 100 μg/ml 24 h
[10] = Group E: TGF-β1 5 ng/ml 12 h, then compound (2) 200 μg/ml 24 h

Compound: CC(=O)N[C@@H](CS)C(=O)O [NAC, N-acetylcysteine, reference compound]
- Relative survival rate ([1]; Group 3: H2O2 0.1 mM + NAC 2 mM, H2O2 0.1 mM alone = 38.9%): 101.9%
- Relative survival rate ([1]; Group 5: H2O2 0.2 mM + NAC 2 mM): 83.1%

Compound: Cc1ccc(=O)n(-c2ccccc2)c1 [Pirfenidone, reference compound]
- Relative expression level (fold) Type I collagen (type I collagen; [6]): 0.95 fold
- Relative expression level (fold) Type I collagen (type I collagen; [7]): 0.57 fold
- Relative expression level (fold) Type I collagen (type I collagen; [8]): 0.50 fold
- Relative expression level (fold) BMP-7 protein (BMP-7 protein [2]; [6]): 1.52 fold
- Relative expression level (fold) BMP-7 protein (BMP-7 protein [2]; [7]): 1.43 fold
- Relative expression level (fold) BMP-7 protein (BMP-7 protein [2]; [8]): 1.34 fold
- Relative expression level (fold) TGF-β protein (TGF-β protein [3]; [6]): 0.67 fold
- Relative expression level (fold) TGF-β protein (TGF-β protein [3]; [7]): 0.64 fold
- Relative expression level (fold) TGF-β protein (TGF-β protein [3]; [8]): 0.67 fold

Compound: CCCCC(=O)c1ccccc1C(=O)O [compound (2)]
- Relative expression level (fold) BMP-7 protein (BMP-7 protein [4]; [9]): 0.11 fold
- Relative expression level (fold) BMP-7 protein (BMP-7 protein [4]; [10]): 0.08 fold
- Relative expression level (fold) TGF-β protein (TGF-β protein [5]; [9]): 0.46 fold
- Relative expression level (fold) TGF-β protein (TGF-β protein [5]; [10]): 0.29 fold
- Relative expression level (fold) p-smad2/3 protein (p-smad2/3 protein; [9]): 1.12 fold
- Relative expression level (fold) p-smad2/3 protein (p-smad2/3 protein; [10]): 1.05 fold
